One block for each compound: values may come before it. Starred links: 1 amine or outer side, 2 acyl side, 3 side chain; linkers in the order of their positions; H or OH if unused. Non-standard residues stand in square brackets, D forms with d. No end group written: not given here. γGlu = O=C(O)[C@H](CCC(=O)[*:2])N[*:1]
Tests used:
[1] = molecular target: T1, human CaSR (Homo sapiens, UniProt P41180, E1011Q); test: Evaluation of CaSR agonist activity (Ca2+ fluorescence, hCaSR-transfected 293E cells); type: cell-based; settings: 293E cells transfected with hCaSR/pcDNA3.1, Calcium 4 fluorescence, FLEX Station
T1 construct: expressed in transfected cells; host or cells: 293E cells (EBNA1-expressing HEK293, ATCC CRL-10852), transient transfection with Fugene6
T1 sequence (P41180 20-1078 E1011Q): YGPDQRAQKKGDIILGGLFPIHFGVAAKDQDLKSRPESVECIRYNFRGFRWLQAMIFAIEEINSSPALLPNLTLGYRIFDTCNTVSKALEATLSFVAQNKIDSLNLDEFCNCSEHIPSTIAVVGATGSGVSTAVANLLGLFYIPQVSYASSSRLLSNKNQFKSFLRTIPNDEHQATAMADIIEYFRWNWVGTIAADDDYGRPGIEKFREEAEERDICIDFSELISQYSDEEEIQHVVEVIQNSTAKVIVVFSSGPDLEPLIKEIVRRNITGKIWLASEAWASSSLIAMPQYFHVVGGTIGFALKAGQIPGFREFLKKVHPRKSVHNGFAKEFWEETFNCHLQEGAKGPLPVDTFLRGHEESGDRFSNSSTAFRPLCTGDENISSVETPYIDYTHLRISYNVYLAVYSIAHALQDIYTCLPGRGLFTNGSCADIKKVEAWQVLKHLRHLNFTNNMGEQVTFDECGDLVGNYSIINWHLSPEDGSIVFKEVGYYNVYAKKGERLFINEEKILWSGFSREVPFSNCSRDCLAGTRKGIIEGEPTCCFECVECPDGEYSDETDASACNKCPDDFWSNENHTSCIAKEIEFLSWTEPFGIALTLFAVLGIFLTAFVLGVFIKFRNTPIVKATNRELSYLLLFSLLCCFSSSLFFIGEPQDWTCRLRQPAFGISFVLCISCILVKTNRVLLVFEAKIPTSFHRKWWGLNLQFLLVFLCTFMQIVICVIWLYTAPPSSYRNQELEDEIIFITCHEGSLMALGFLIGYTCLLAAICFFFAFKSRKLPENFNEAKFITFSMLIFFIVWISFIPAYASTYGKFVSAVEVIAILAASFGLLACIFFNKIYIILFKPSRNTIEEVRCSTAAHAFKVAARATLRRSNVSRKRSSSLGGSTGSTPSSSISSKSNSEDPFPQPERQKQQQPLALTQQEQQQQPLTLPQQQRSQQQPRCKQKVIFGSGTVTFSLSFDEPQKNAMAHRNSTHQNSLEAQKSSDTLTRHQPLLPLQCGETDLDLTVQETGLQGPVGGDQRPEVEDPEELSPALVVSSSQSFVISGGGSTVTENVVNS
Experimental: 293E Cells (EBNA1-expresion HEK293 cells, ATCC No. CRL-10852) were cultivated in DMEN/Ham's-F12 (3.15/mL glucose-containing Dulbecco's modified Eagle medium, available from Nakaraitesk Company) supplemented with 10% fetal calf serum, in the presence of 200 μg/mL of G418 (available from Genetisin). The cultured cells were inoculated in F25 flask at a density of 3×10^6 cells/10 mL, the flask was allowed to stand over 24 hours in a CO2 incubator (5% CO2, 37° C.), and then the human CaSR-expression plasmid hCaSR/pcDNA3.1 was transformed or transfected with a reagent for transfection Fugene6 (available from Roche Company). The transfected plasmid was maintained in a CO2 incubator for 6 to 7 hours, then the cells were recovered using a 10% fetal calf serum-containing DMEM/Ham's-F12 and the cells were inoculated in each well of a poly-D-lysine coat 96-well plate (BD-Biocoat) at a density of 70,000 cells/well.
To each well of the 96-well plate, each test compound was dissolved in a 0.1% BSA-containing Assay Buffer in an amount of 50 μl/well, and then any change of the intensity of fluorescence was monitored over 3 minutes using FLEX Station (available from Molecular Devices Company).
Method for the Determination of EC50:
The difference (RFU (Max-Min)) between the maximum and minimum fluorescent intensities observed for each well before and after the addition of each specific test compound was determined by the automatic calculation using FLEX Station. The activity rate was calculated while the RFU (Max-Min) value observed when adding the compound at the maximum concentration was defined to be 100% and the RFU (Max-Min) value observed when using the 0.1% BSA-containing Assay Buffer free of any test compound was defined to be 0%, followed by subjecting the resulting data to the curve-fitting procedures using the spreadsheet software Xfit or Graph-Pad-Prism to thus determine the EC50 which was the concentration of the compound at the activity rate of 50%.
In addition, the same EC50-determining procedures used above were repeated except for using other dipeptides as Comparative Examples.

[2] = Quantitative sensory evaluation test of kokumi-imparting activity; type: in vivo, human; settings: n=4; for Intensity of kokumi, Initial Taste: scale control 0, strong 3, very strong 5
Experimental: This quantitative sensory evaluation test was carried out according to the following procedures: The intensity of the kokumi-imparting activity observed for each test compound was determined as a value observed when blending 0.00001 to 0.5 g/dL of the corresponding test compound with the distilled water containing sodium glutamate (0.05 g/dL), inosinic acid monophosphate (0.05 g/dL), and sodium chloride (0.5 g/dL). […] The evaluation criteria are assumed to be as follows: control: 0 point; strong: 3 points; very strong: 5 points. Moreover, to clarify the criteria, the initial taste and the middle/after taste of γ-Glu-Val-Gly were set at 3.0 points, respectively. The scoring or rating was carried out using the method of line scale and more specifically, it was carried out by writing each corresponding score on a straight line on which points corresponding to −5˜0˜5 had been indicated. The panelists used in this test were defined to be persons who had been engaged in the development of seasonings for foods over not less than one year of the cumulative time period and who could judge that the difference in the titer between γ-Glu-Cys-Gly and γ-Glu-Val-Gly added to a solution having umami/salty taste is about 10 times (while confirming the ability of these persons at regular intervals). The evaluation was carried out at n (the number of panelists used)=4. The term “initial taste” means the taste which develops from 0 to 2 seconds after the sample is placed in the panelist's mouth, while the term “middle/after taste” means the taste which develops thereafter.
In addition, γ-Glu-Val-Gly, γ-Glu-Cys, γ-Glu-Val, γ-Glu-Ala and γ-Glu-Ser were likewise inspected for their kokumi-imparting effect according to the same procedures used above.

[3] = 0.2 g/dL in water with MSG 0.05, IMP 0.05, NaCl 0.5 g/dL
[4] = 0.01 g/dL in umami/salty solution
[5] = 0.01 g/dL in water with MSG 0.05, IMP 0.05, NaCl 0.5 g/dL
[6] = 0.001 g/dL in water with MSG 0.05, IMP 0.05, NaCl 0.5 g/dL, reference set at 3.0

Compound: CC(C)(NC(=O)CC[C@H](N)C(=O)O)C(=O)O [γ-Glu-Aib]
EC50 [1]: 15.4 µM

Compound: N[C@@H](CCC(=O)N[C@@H](CS)C(=O)O)C(=O)O [γ-Glu-Cys]
EC50 [1]: 0.16 µM
Sensory Evaluation Profile [2, 4]: Mainly the middle and after tastes
Intensity of kokumi, Middle/After Taste [2, 5]: 3.1 points
Intensity of kokumi, Initial Taste [2, 5]: 3.1 points

Compound: CCCC[C@H](NC(=O)CC[C@H](N)C(=O)O)C(=O)O [γ-Glu-Nle, γ-L-glutamyl-L-norleucine]
EC50 [1]: 4.41 µM

Compound: N[C@@H](CCC(=O)N[C@@H](CO)C(=O)O)C(=O)O [γ-Glu-Ser]
EC50 [1]: 11 µM
Intensity of kokumi, Middle/After Taste [2, 3]: 3.0 points
Intensity of kokumi, Initial Taste [2, 3]: 3.6 points

Compound: C[C@@H](O)[C@H](NC(=O)CC[C@H](N)C(=O)O)C(=O)O [γ-Glu-Thr]
EC50 [1]: 6.97 µM

Compound: CC(C)(C)[C@H](NC(=O)CC[C@H](N)C(=O)O)C(=O)O [γ-Glu-tLeu]
EC50 [1]: 3.06 µM

Compound: [γGlu]-Val-Gly
Intensity of kokumi, Middle/After Taste [2, 6]: 3.0 points
Intensity of kokumi, Initial Taste [2, 6]: 3.0 points

Second part, led by results:

EC50 [1]: 0.21 µM
Compound: CC[C@H](NC(=O)CC[C@H](N)C(=O)O)C(=O)O

EC50 [1]: 1.24 µM
Compound: C[C@H](NC(=O)CC[C@H](N)C(=O)O)C(=O)O [γ-Glu-Ala]
Sensory Evaluation Profile ([2]; 0.2 g/dL in umami/salty solution): Mainly the tastes similar to the sour
Intensity of kokumi, Middle/After Taste [2, 3]: 4.3 points
Intensity of kokumi, Initial Taste [2, 3]: 4.5 points

EC50 [1]: 1.03 µM
Compound: CC(C)[C@H](NC(=O)CC[C@H](N)C(=O)O)C(=O)O [γ-Glu-Val]
Sensory Evaluation Profile [2, 4]: The after taste was quite weak.
Intensity of kokumi, Middle/After Taste [2, 5]: 2.4 points
Intensity of kokumi, Initial Taste [2, 5]: 3.1 points
